Measured values reported in patent US20250123282A1, “METHODS FOR EVALUATION AND TREATMENT OF TYROSINE KINASE INHIBITOR (TKI)-RESISTANT ACUTE MYELOID LEUKEMIA” (LOMA LINDA UNIVERSITY, priority 2021, published 2025).

Experiments:
MV4-11 cells [1] = assay: Human cytokine proteome profile array of cell-free supernatants from GILT-treated MV4-11; type: cell-based; conditions: 80 nM GILT, MV4-11, vs non-treatment control
Protocol: To identify the protein(s) responsible for initiation of the survival mechanism and subsequent proliferation of AML blasts, human cytokine proteome profile arrays of cell-free supernatants from GILT-treated MV4-11's cultures were performed. […] Under the no treatment (No Tx) condition, MV4-11 releases numerous cytokines such as MIF in their supernatant; however, one dose of GILT-treatment eliminated release of a variety of cytokines such as osteopontin (arrows, FIG. 7A), a protein closely associated with adverse prognosis in AML patients. Next, bone marrow mononuclear cells (BMMNC) from AML patients were treated for 3 days ex vivo.
Proteomics and Blotting Analysis. Three days after the one dose treatment, the cell-free supernatants were collected for human cytokine profile assay. The Human XL Cytokine Array Kit (Catalog #ARY022B, R&D) was used according to the manufacturer's procedures and exposed to X-ray film (<10 minutes). Profiles of mean spot pixel density were created using a transmission-mode scanner and Image J analysis software.

MV4-11 cells [2] = assay: FACS of TKI-treated MV4-11 cells in vitro (viable blasts, Ki67, pBAD); type: cell-based, human; conditions: 3 days after one dose of 80 nM TKI; vs non-treatment controls
Protocol: The AML cells were analyzed at different time points after exposure to TKI (3 days, 10 days, 20 days, and 28 days). […] After 3 days, FACS of the surface markers and intracellular proteins, including CD14, CD33, CD44, and Ki67, were performed. FIGS. 1A-1E depicts therapeutic effect of different TKIs on MV4-11 and MOLM-14 cells in vitro (N=6). […] The circles indicate the group of viable blasts located in a FACS plot and green arrows indicate the dying tendency of blasts which will become positive for viability dye during the next few days. FIGS. 1C and 1D are graphical representations of the cumulative FACS percentage data of viable MV4-11 and MOLM-14 cells. *P<0.05. […]
Flow Cytometry (FACS). […] About 1×10^4˜10^6 cells in 100 μl FACS buffer (PBS containing 1% FBS and 0.05% sodium azide) were stained with various fluorescence-conjugated antibodies specific for the desired cell surface proteins at 4° C. for 30 min. The surface-stained cells were then fixed and permeabilized using the appropriate reagents (e.g. the BD Pharmingen Cytofix/Cytoperm buffer) and stained with different fluorescence-conjugated antibodies specific for the desired intracellular proteins at 4° C. for 2 hours in the permeabilizing buffer (e.g. the BD Perm/Wash buffer). […] Finally, the cells were washed twice in the permeabilizing buffer and twice in the FACS buffer before being analyzed on the BD FACSAria II. […]

## CCc1nc(C(N)=O)c(Nc2ccc(N3CCC(N4CCN(C)CC4)CC3)c(OC)c2)nc1NC1CCOCC1 [GILT, Gilteritinib]
MV4-11 cells [1]
  MIF increase in the supernatant (mean pixel density): 2.6 fold

## CC(C)(C)c1cc(NC(=O)Nc2ccc(-c3cn4c(n3)sc3cc(OCCN5CCOCC5)ccc34)cc2)no1 [QUIZ, Quizartinib]
MV4-11 cells [2]
  viable MV4-11 blasts (FACS): more effective
